# Assay results: patent publication US12552765B2, “Small molecule modulators of pantothenate kinases” (ST. JUDE CHILDREN'S RESEARCH HOSPITAL, INC., priority 2016, dated 2026)
# Test system: diabetic ob/ob mice
# Test: Blood glucose in adult male diabetic ob/ob mice
# Type: in vivo
# Details: 10 mg/kg orally at 12-hr intervals, 5 doses, pantothenate-deficient chow, in 30% Captisol; non-diabetic range 120±20 mg/dL
# Procedure: Compound was administered orally at 12-hr intervals for a total of 5 doses starting at T=0 hr. Blood glucose from the tail vein was measured just prior to each administration. Compound was formulated in 30% Captisol (o); 30% Captisol only (•).
row,Compound,blood glucose level
1,CC(C)c1ccc(CC(=O)N2CCN(c3ccc(C#N)nn3)CC2)cc1 [6-(4-(2-(4-isopropylphenyl)acetyl)piperazin-1-yl)pyridazine-3-carbonitrile],reduces the blood glucose level to values within the range of non-diabetic mice

# Molecular target: hPanK3 (Homo sapiens, UniProt Q9H999)
# Sequence (Q9H999 whole entry): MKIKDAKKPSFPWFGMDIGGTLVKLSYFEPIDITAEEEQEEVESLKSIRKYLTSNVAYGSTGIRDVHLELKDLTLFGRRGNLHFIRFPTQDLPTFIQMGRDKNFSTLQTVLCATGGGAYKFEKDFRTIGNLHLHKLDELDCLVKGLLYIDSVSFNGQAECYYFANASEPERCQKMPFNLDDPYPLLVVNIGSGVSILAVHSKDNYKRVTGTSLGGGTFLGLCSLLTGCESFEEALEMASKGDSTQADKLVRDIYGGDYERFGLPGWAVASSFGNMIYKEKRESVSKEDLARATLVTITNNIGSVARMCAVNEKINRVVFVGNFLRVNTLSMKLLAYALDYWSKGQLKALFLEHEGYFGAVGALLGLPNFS
# Test: Inhibition of PanK kinase activity (phosphorylation of pantothenate, purified protein)
# Type: biochemical
# Details: not given
row,Compound,IC50
1,N#Cc1ccc(N2CCN(C(=O)NC3CCCCC3)CC2)nc1 [Compound 19],> 10000 nM
2,CC(C)(C)NC(=O)N1CCN(c2ccc(C#N)cn2)CC1 [Compound 20],> 10000 nM
3,CCCCCCCCNC(=O)N1CCN(c2ccc(C#N)cn2)CC1 [Compound 21],> 10000 nM
4,CC(C)NC(=O)N1CCN(c2ccc(C#N)cn2)CC1 [Compound 22],> 10000 nM
5,Cc1ccc(CNC(=O)N2CCN(c3ccc(C#N)cn3)CC2)cc1 [Compound 24],> 10000 nM
6,N#Cc1ccc(N2CCN(C(=O)NCc3ccco3)CC2)nc1 [Compound 25],> 10000 nM
7,CC(C)c1cc(NC(=O)N2CCN(c3ccc(C#N)cn3)CC2)on1 [Compound 27],> 10000 nM

# Same assay, conditions: Morrison Ki fit
row,Ki,Compound
1,0.97 nM,CC(C)(C)c1ccc(CC(=O)N2CCN(c3ccc(C#N)nn3)CC2)cc1 [Compound 73]
2,1.8 nM,CC(C)(C)c1ccc(CC(=O)N2CCN(c3ccc(Cl)nn3)CC2)cc1 [Compound 74]
3,1.8 nM,CC(C)c1ccc(OC(=O)N2CCN(c3ccc(Cl)nn3)CC2)cc1 [Compound 76]
4,62.5 nM,CC(C)c1ccc(CC(=O)N2CCN(c3ccc(C#N)nn3)CC2)nc1 [Compound 82]
5,9.1 nM,CC(C)c1ccc(CC(=O)N2CC[C@@H](Nc3ccc(C#N)nn3)C2)cc1 [Compound 84]
6,7.1 nM,CC(C)c1ccc(CC(=O)N[C@H]2CCN(c3ccc(C#N)nn3)C2)cc1 [Compound 85]
7,26.6 nM,CC(C)c1ccc(CC(=O)N[C@@H]2CCN(c3ccc(C#N)nn3)C2)cc1 [Compound 86]
8,14.1 nM,CC(C)c1ccc(N(C)C(=O)N2CCN(c3ccc(C#N)nn3)CC2)cc1 [Compound 108]
9,33.7 nM,CC(C)c1ccc(OC(=O)N2CCN(c3cnc(C#N)cn3)CC2)cc1 [Compound 110]
10,21 nM,CC(C)c1ccc(NC(=O)N2CCN(c3cnc(Cl)cn3)CC2)cc1 [Compound 113]
11,12.5 nM,CC(C)c1ccc(CC(=O)N2CCN(c3ncc(Cl)nc3N)CC2)cc1 [Compound 116]
12,5 nM,CC(C)c1ccc(CC(=O)NC2CCN(c3ccc(C#N)nn3)CC2)cc1 [Compound 118]
13,3.3 nM,CC(C)c1ccc(CC(=O)N2CCN(c3ccc(C#N)nn3)CC2)s1 [Compound 119]
14,0.64 nM,CC(C)c1ccc(CC(=O)N2CCN(c3ccc([N+](=O)[O-])nc3)CC2)cc1 [Compound 120]
15,1.4 nM,CC(C)c1ccc(CC(=O)N2CCN(c3ccc(C#N)nn3)C[C@H]2C)cc1 [Compound 121]
16,4.1 nM,CC(C)c1ccc(CC(=O)N2CCN(c3cnc(Cl)cn3)CC2)s1 [Compound 122]
17,0.13 nM,CC(C)c1ccc(CC(=O)N2CCN(c3ccc(C#N)nn3)[C@H](C)C2)cc1 [Compound 123]
18,1.1 nM,CC(C)c1ccc(CC(=O)N2CCN(c3ccc(C#N)nn3)C[C@@H]2C)cc1 [Compound 124]
19,0.09 nM,CC(C)c1ccc(CC(=O)N2CCN(c3ccc(C#N)nn3)[C@@H](C)C2)cc1 [Compound 126]
20,2.4 nM,CC(C)c1ccc(CC(=O)N2CCN(c3ccc(C#N)nn3)C(C)(C)C2)cc1 [Compound 136]
21,0.27 nM,CC(C)c1ccc(CC(=O)N2C[C@@H](C)N(c3ccc(C#N)nn3)[C@@H](C)C2)cc1 [Compound 137]

# Second part, the molecule before the results:
row,Compound,Ki
1,CCC(C)c1ccc(NC(=O)N2CCN(c3ccc(C#N)nn3)CC2)cc1 (centres unmarked) [Compound 66],7.8 nM
2,CC(C)(C)c1ccc(C(F)(F)C(=O)N2CCN(c3ccc(C#N)nn3)CC2)cc1 [Compound 77],20.8 nM
3,Cc1cc(OC(=O)N2CCN(c3ccc(C#N)nn3)CC2)ccc1C(C)C [Compound 80],55.7 nM
4,CC(C)c1ccc(CC(=O)N[C@H]2CN(c3ccc(C#N)nn3)C[C@@H]2O)cc1 [Compound 87],12.3 nM
5,CC(C)c1ccc(NC(=O)N[C@H]2CCN(c3ccc(C#N)nn3)C2)cc1 [Compound 88],36.3 nM
6,CC(C)c1ccc(CC(=O)NCCNc2ccc(C#N)nn2)cc1 [Compound 90],28.3 nM
7,CC(C)c1ccc(CC(=O)N[C@@H]2CN(c3ccc(C#N)nn3)C[C@H]2O)cc1 [Compound 91],35 nM
8,CC(C)c1ccc(CC(=O)N[C@@H]2CN(c3ccc(C#N)nn3)C[C@@H]2O)cc1 [Compound 92],40.8 nM
9,CC(C)c1ccc(CC(=O)N[C@H]2CCN(c3ccc(C#N)nn3)C2)cc1F [Compound 94],1.1 nM
10,CC(C)c1ccc(CC(=O)N[C@H]2CN(c3ccc(C#N)nn3)C[C@@H]2O)cc1F [Compound 95],51 nM
11,CC(C)c1ccc(CC(=O)N[C@H]2CCN(c3ccc(C#N)nn3)C2)c(F)c1 [Compound 100],1.5 nM
12,CC(C)c1ccc(CC(=O)N[C@@H]2CN(c3ccc(C#N)nn3)C[C@H]2O)cc1F [Compound 105],44.8 nM
13,CC(C)c1ccc(CC(=O)N[C@H]2CCN(c3ccc(C#N)nn3)C2)cn1 [Compound 106],5.9 nM
14,CC(C)c1ccc(CC(=O)N[C@@H]2CN(c3ccc(C#N)nn3)C[C@H]2O)c(F)c1 [Compound 107],21.1 nM
15,CC(C)c1ccc(CC(=O)N2CCN(c3ccc(C#N)nn3)[C@@H](C)C2)s1 [Compound 128],1.3 nM
16,CSc1ccc(CC(=O)N2CCN(c3ccc(C#N)nn3)[C@H](C)C2)cc1 [Compound 129],22.4 nM
17,CC(C)c1ccc(CC(=O)N2CCN(c3ccc(C#N)nn3)[C@H](C)C2)cn1 [Compound 131],9 nM
18,CC(C)c1ccc(CC(=O)N2CCN(c3ccc(C#N)nn3)[C@@H](C)C2)cn1 [Compound 132],12.6 nM
19,CC(C)c1ccc(CC(=O)N2CCN(c3ccc(Cl)nn3)[C@@H](C)C2)cn1 [Compound 133],9.7 nM
20,CC(C)c1ccc(CC(=O)N2CCN(c3ccc(Cl)nn3)[C@H](C)C2)cn1 [Compound 134],10.6 nM
21,CSc1cccc(CC(=O)N2CCN(c3ccc(C#N)nn3)[C@H](C)C2)c1 [Compound 135],38 nM
22,CC(C)c1ccc(OC(=O)N2CCN(c3ccc(C#N)nn3)[C@@H](C)C2)cc1 [Compound 138],7.6 nM
23,CC(C)c1ccc(OC(=O)N2CCN(c3ccc(C#N)nn3)[C@H](C)C2)cc1 [Compound 139],4.7 nM
24,C[C@H]1CN(C(=O)Cc2ccc(C(C)(C)C)cc2)CCN1c1ccc(C#N)nn1 [Compound 140],1 nM
25,C[C@@H]1CN(C(=O)Cc2ccc(C(C)(C)C)cc2)CCN1c1ccc(C#N)nn1 [Compound 141],1.7 nM
26,CC(c1ccc(CC(=O)N2CCN(c3ccc(C#N)nn3)[C@@H](C)C2)cc1)C(F)(F)F (some centres unmarked) [Compound 144],2.5 nM
27,CC(c1ccc(CC(=O)N2CCN(c3ccc(C#N)nn3)[C@H](C)C2)cc1)C(F)(F)F (some centres unmarked) [Compound 145],1.5 nM
